Measured values as given in patent US4410629A, “ML-236B Derivatives and their preparation” (Sankyo Company Limited, priority 1980, dated 1983).
Counter-ions that a name gives are not always drawn.

Tests used:
cholesterol biosynthesis = experiment: Inhibition of cholesterol biosynthesis (method of J. Biol. Chem. 234, 2835 (1959)); format: biochemical
serum cholesterol levels = settings: animals; J. Antibiotics 29, 1346 (1976); cited from earlier work
[1] = tested on: 3-hydroxy-3-methylglutaryl-coenzyme A reductase; settings: competing with the rate-limiting enzyme HMG-CoA reductase; J. Antibiotics 29, 1346 (1976); cited from earlier work

| SMILES | concentration required to inhibit cholesterol biosynthesis by 50% (cholesterol biosynthesis) [µg/mL] | serum cholesterol levels (serum cholesterol levels) | inhibition of the biosynthesis of cholesterol by enzymes or cultured cells [1] |
| --- | --- | --- | --- |
| CC[C@H](C)C(=O)O[C@H]1CC=CC2=C[C@@H](O)[C@H](C)[C@H](CC[C@@H]3C[C@@H](O)CC(=O)O3)[C@H]21 [IsoM-4' lactone] | 0.013 | – | – |
| CC[C@H](C)C(=O)O[C@H]1CC=CC2=C[C@@H](O)[C@H](C)[C@H](CC[C@@H](O)C[C@@H](O)CC(=O)OC)[C@H]21 [IsoM-4' methyl ester] | 0.007 | – | – |
| CC[C@H](C)C(=O)O[C@H]1C[C@H](O)C=C2C=C[C@H](C)[C@H](CC[C@@H](O)C[C@@H](O)CC(=O)OC)[C@H]21 [M-4 methyl ester] | 0.001 | – | – |
| CC[C@H](C)C(=O)O[C@H]1C[C@H](O)C=C2C=C[C@H](C)[C@H](CC[C@@H](O)C[C@@H](O)CC(=O)O)[C@H]21 [M-4 sodium salt] | 0.0008 | – | – |
| CC[C@H](C)C(=O)O[C@H]1C[C@@H](O)C=C2C=C[C@H](C)[C@H](CC[C@@H](O)C[C@@H](O)CC(=O)O)[C@H]21 [M-4' sodium salt] | 0.00049 | – | – |
| CCC(C)C(=O)OC1CCC=C2C=CC(C)C(CCC3CC(O)CC(=O)O3)C21 (centres unmarked) [ML-236B] | 0.01 | significantly reduces serum cholesterol levels of animals | inhibit the biosynthesis of cholesterol |
